Data as given in ChEMBL document CHEMBL3046775, “Synthesis and evaluation of 7-substituted-3,4-dihydrobenzo[f][1,4]oxazepin-5(2H)-ones as anticonvulsant and hypnotic agents” (Med Chem Res, 2011).
Calls of active or inactive are those of the source. The rule behind the calls is not given here.

Experiments:
[1] = Protective index, ratio of TD50 for neurotoxicity to ED50 for anticonvulsant activity in mouse; assay type: toxicity, organism-based; settings: in vivo, read-out: Ratio TD50/ED50
Mus musculus [2] = assay: Neurotoxicity against Mus musculus (mouse) at 100 mg/kg, ip measured at 4 hr by rotarod test; assay type: toxicity, organism-based; design: dose 100 mg/kg, route intraperitoneal; settings: in vivo
Mus musculus [3] = assay: Anticonvulsant activity in Mus musculus (mouse) assessed as protection against maximal electroshock-induced seizures at 100 mg/kg, ip administered 30 min prior to electroshock-challenge measured at 0.5 hr; assay type: functional, organism-based; design: dose 100 mg/kg
Mus musculus [4] = assay: Anticonvulsant activity in Mus musculus (mouse) assessed as protection against maximal electroshock-induced seizures at 100 mg/kg, ip administered 30 min prior to electroshock-challenge measured at 4 hr; assay type: functional, organism-based; design: dose 100 mg/kg
Mus musculus [5] = assay: Neurotoxicity against Mus musculus (mouse) at 100 mg/kg, ip measured at 0.5 hr by rotarod test; assay type: toxicity, organism-based; design: dose 100 mg/kg, route intraperitoneal; settings: in vivo
Mus musculus [6] = assay: Hypnotic activity in Mus musculus Kunming (mouse) assessed as increase in phenobarbital-induced sleep duration at 60 mg/kg, ip administered 30 min prior to phenobarbital-induction; assay type: functional, organism-based; design: dose 60 mg/kg
[7] = Neurotoxicity against ip dosed Mus musculus (mouse) by rotarod test; assay type: toxicity, organism-based; settings: in vivo
Mus musculus [8] = assay: Anticonvulsant activity in ip dosed Mus musculus (mouse) assessed as protection against maximal electroshock-induced seizures administered 30 min prior to electroshock-challenge measured at 4 hr; assay type: functional
Mus musculus [9] = assay: Neurotoxicity against Mus musculus (mouse) at 300 mg/kg, ip measured at 0.5 hr by rotarod test; assay type: toxicity, organism-based; design: dose 300 mg/kg, route intraperitoneal; settings: in vivo
Mus musculus [10] = assay: Neurotoxicity against Mus musculus (mouse) at 300 mg/kg, ip measured at 4 hr by rotarod test; assay type: toxicity, organism-based; design: dose 300 mg/kg, route intraperitoneal; settings: in vivo
Mus musculus [11] = assay: Anticonvulsant activity in Mus musculus (mouse) assessed as protection against maximal electroshock-induced seizures at 300 mg/kg, ip administered 30 min prior to electroshock-challenge measured at 4 hr; assay type: functional, organism-based; design: dose 300 mg/kg
Mus musculus [12] = assay: Anticonvulsant activity in Mus musculus (mouse) assessed as protection against maximal electroshock-induced seizures at 300 mg/kg, ip administered 30 min prior to electroshock-challenge measured at 0.5 hr; assay type: functional, organism-based; design: dose 300 mg/kg
Mus musculus [13] = assay: Hypnotic activity in Mus musculus Kunming (mouse) assessed as increase in phenobarbital-induced sleep duration at 30 mg/kg, ip administered 30 min prior to phenobarbital-induction; assay type: functional, organism-based; design: dose 30 mg/kg
Mus musculus [14] = assay: Anticonvulsant activity in Mus musculus (mouse) assessed as protection against maximal electroshock-induced seizures at 30 mg/kg, ip administered 30 min prior to electroshock-challenge measured at 4 hr; assay type: functional, organism-based; design: dose 30 mg/kg
Mus musculus [15] = assay: Hypnotic activity in ip dosed Mus musculus Kunming (mouse) assessed as increase in phenobarbital-induced sleep duration administered 30 min prior to phenobarbital-induction; assay type: functional, organism-based
Mus musculus [16] = assay: Anticonvulsant activity in Mus musculus (mouse) assessed as protection against maximal electroshock-induced seizures at 30 mg/kg, ip administered 30 min prior to electroshock-challenge measured at 0.5 hr; assay type: functional, organism-based; design: dose 30 mg/kg
Mus musculus [17] = assay: Hypnotic activity in Mus musculus Kunming (mouse) assessed as increase in phenobarbital-induced sleep duration at 10 mg/kg, ip administered 30 min prior to phenobarbital-induction; assay type: functional, organism-based; design: dose 10 mg/kg
Mus musculus [18] = assay: Hypnotic activity in Mus musculus Kunming (mouse) assessed as increase in phenobarbital-induced sleep duration at 60 mg/kg, ip administered 30 min prior to phenobarbital-induction (reference value: 20.9 +/- 2.31 min); assay type: functional; settings: route intraperitoneal

SMILES	selectivity ratio [1]	Activity (Mus musculus [2])	Activity (Mus musculus [3])	Activity (Mus musculus [4])	Activity (Mus musculus [5])	TD50 [7] [mg/kg]	ED50 (Mus musculus [8]) [mg/kg]	further results
NC(=O)N1c2ccccc2C=Cc2ccccc21 [CARBAMAZEPINE]	6.4	–	–	–	–	–	–	–
COc1ccc(COc2ccc3c(c2)C(=O)NCCO3)cc1OC	–	Non-toxic	inactive	inactive	Toxic	–	–	–
CCCCOc1ccc2c(c1)C(=O)NCCO2	–	Non-toxic	Active	Active	Toxic	–	–	–
CN1CCN(C(=O)OC2c3nccnc3C(=O)N2c2ccc(Cl)cn2)CC1 (stereo not drawn)	–	–	–	–	–	–	–	Activity (Mus musculus [6]): Active
O=C1NCCOc2ccc(OCc3cccc(F)c3)cc21	1	Non-toxic	Active	inactive	Toxic	73.1	73.1	–
CCCCCCCCOc1ccc2c(c1)C(=O)NCCO2	–	Non-toxic	Active	inactive	Toxic	–	–	–
O=C1NCCOc2ccc(OCc3cccc(Cl)c3)cc21	–	Non-toxic	Active	inactive	Toxic	–	–	–
CCCCCCCCCCCCOc1ccc2c(c1)C(=O)NCCO2	–	–	–	–	–	–	–	Activity (Mus musculus [9]): Toxic; Activity (Mus musculus [10]): Non-toxic; Activity (Mus musculus [11]): inactive; Activity (Mus musculus [12]): Active
O=C1NCCOc2ccc(OCc3ccccc3Br)cc21	–	Non-toxic	inactive	inactive	Toxic	–	–	–
O=C1NCCOc2ccc(OCc3ccccc3)cc21	1	Non-toxic	Active	inactive	Toxic	76.2	73.1	–
O=C1CCc2cc(OCc3ccccc3)ccc2N1	–	–	–	–	–	> 300	–	–
CCCCCCOc1ccc2c(c1)C(=O)NCCO2	2.2	Non-toxic	Active	Active	Toxic	106	47.3	–
O=C1NCCOc2ccc(OCc3ccc(Cl)cc3)cc21	–	Non-toxic	inactive	inactive	Toxic	–	–	–
O=C1NCCOc2ccc(OCc3ccccc3F)cc21	1.2	Non-toxic	Active	inactive	Toxic	52.8	45.6	–
O=C1NCCOc2ccc(OCc3c(Cl)cccc3Cl)cc21	–	Non-toxic	inactive	inactive	Toxic	–	–	–
O=C1NCCOc2ccc(OCc3ccccc3Cl)cc21	–	–	–	–	–	–	–	Activity (Mus musculus [9]): Toxic; Activity (Mus musculus [10]): Non-toxic; Activity (Mus musculus [11]): inactive; Activity (Mus musculus [12]): Active
Cc1ccc(COc2ccc3c(c2)C(=O)NCCO3)cc1	–	Non-toxic	inactive	inactive	Toxic	–	–	–
CCCOc1ccc2c(c1)C(=O)NCCO2	2.2	Non-toxic	Active	inactive	Toxic	170	78.3	–
CCCCCCCOc1ccc2c(c1)C(=O)NCCO2	2.5	Non-toxic	–	–	Toxic	47.3	19	Activity (Mus musculus [13]): Active; Activity (Mus musculus [14]): inactive; Activity (Mus musculus [15]): Dose-dependent effect; Activity (Mus musculus [16]): Active; Activity (Mus musculus [17]): inactive; Time (Mus musculus [18]): 45.7 min
CCC1(c2ccccc2)C(=O)NC(=O)NC1=O [PHENOBARBITAL]	–	–	–	–	–	–	21.8	–
CCOc1ccc2c(c1)C(=O)NCCO2	–	Non-toxic	inactive	inactive	Non-toxic	–	–	–
O=C1NCCOc2ccc(OCc3ccc(Br)cc3)cc21	–	–	–	–	–	–	–	Activity (Mus musculus [9]): Toxic; Activity (Mus musculus [10]): Non-toxic; Activity (Mus musculus [11]): inactive; Activity (Mus musculus [12]): Active
O=C1NCCOc2ccc(OCc3ccc(F)cc3)cc21	–	–	–	–	–	–	–	Activity (Mus musculus [9]): Toxic; Activity (Mus musculus [10]): Non-toxic; Activity (Mus musculus [11]): Active; Activity (Mus musculus [12]): Active
COc1ccc(COc2ccc3c(c2)C(=O)NCCO3)cc1	–	Non-toxic	inactive	inactive	Non-toxic	–	–	–
CCCCCOc1ccc2c(c1)C(=O)NCCO2	1.9	Non-toxic	Active	inactive	Toxic	106	56.8	–
